Measured values: PMC11253624, “Unsaturated fatty acid perturbation combats emerging triazole antifungal resistance in the human fungal pathogen Aspergillus fumigatus” (mBio, 2024)
Values after ≈ are worked out from the molar mass of the structure shown. Read-outs that look alike come from different tables or passages of the source.

Assays:
Aspergillus fumigatus [1] = test: Agar-based colony biofilm assay; type: cell-based; conditions: for inhibition at 0.58 µg/mL / inhibition at 1.16 µg/mL: Aspergillus fumigatus; for growth of parental wild-type strain in the presence of MBX-7591 (of untreated): concentration not given
[2] = tested on: A. fumigatus CEA10 reference strain; test: MIC of HTS hits vs A. fumigatus CEA10, CLSI microbroth dilution, with or without 32 µg/mL fluconazole; conditions: for MIC: Aspergillus fumigatus
Fusarium spp. = test: CLSI-based microbroth dilution MIC, spectrum of activity; type: cell-based; conditions: solani and oxysporum
P. variotii = test: microbe, parasite or virus in culture; type: cell-based; conditions: Paecilomyces variotii; strain MYA-3630
Caco-2 permeability = type: in vitro ADME; conditions: human
Aspergillus terreus = test: microbe, parasite or virus in culture; type: cell-based; conditions: strain AT1
Rhizopus delemar = test: CLSI-based microbroth dilution MIC, spectrum of activity; type: cell-based; conditions: strain 99-880; for MIC: Rhizopus delemar
Aspergillus fumigatus [3] = test: Colony recovery after CLSI MIC testing (fungicidal test); type: cell-based; conditions: at MIC (2.453 μg/ml) and 2X MIC (4.906 μg/ml)
Procedure: Perhaps consistent with these lipid profiling data, transmission electron microscopy images of MBX-7591-treated cells reveal a loss of cellular membrane integrity, a large increase in the electron translucent cell wall, and a significant increase in electron density in the cytoplasm (Fig. S1B). These TEM images are consistent with cell death upon MBX-7591 treatment.
115 Supplementary Figure 1. MBX-7591 pre-treatment induces cell death.
116 A) Biofilms grown for 12 hours with MBX-7591 pre-treatment (PT) are more susceptible to
117 subsequent 6-hour voriconazole (VCZ) treatment. MBX-7591 PT + VCZ biofilms show higher
118 sytox staining and nuclear collapse indicative of increased cell membrane permeability and cell
119 death. B) TEM image of cross section of Aspergillus fumigatus hyphae from 24-hour biofilms
120 grown in vehicle control or 0.588 μg/ml MBX-7591. MBX-7591 induces changes in the cell wall,
121 increased vacuolization and increased cytosolic density (black arrows). C) MBX-7591 reduces
CLSI assay done as described in methods and incubated for 48 hours at
124 37°C, 5%CO2. Subsequently 100 µL of untreated control, ½ MIC, MIC and 2X MIC wells were
125 plated onto GMM and incubated at 37°C, 5%CO2 for 48h. Representative images of fungal
126 growth of 2 independent biological replicates shown.

Aspergillus nidulans = test: microbe, parasite or virus in culture; type: cell-based; conditions: strain FGSC A4
[4] = Aqueous solubility (nephelometric); type: physicochemical; conditions: kinetic from dmso stock
Procedure: The maximum aqueous solubility of each compound was determined using a nephelometric method as described ([51]). Each assay comprised three technical replicates, and each assay was repeated at least once. The reported solubility is the average of at least five technical replicates. […]

Candida albicans = test: CLSI-based microbroth dilution MIC for yeast; type: cell-based
HeLa cells (ATCC CCL-2) = test: Mammalian cell cytotoxicity (CC50); type: cell-based
Procedure: (§1) The half-maximal cytotoxic concentration (CC50) of each compound against HeLa cells (ATCC CCL-2) was measured as previously described ([50]). Each assay comprised three technical replicates, and each assay was repeated at least once. The mean values for each biological replicate were averaged, and the CC50 was determined using a four-parameter nonlinear curve fitting algorithm (GraphPad Prism). The average of the CC50s from two biological replicates was calculated and reported.

[5] = Mammalian cell cytotoxicity (CC50); type: cell-based; conditions: human, HeLa cells (ATCC CCL-2)
Procedure: as §1

Candida auris = test: CLSI-based microbroth dilution MIC for yeast; type: cell-based; conditions: Candidozyma auris
Scedosporium spp. = test: CLSI-based microbroth dilution MIC, spectrum of activity; type: cell-based
Coccidioides spp. = test: microbe, parasite or virus in culture; type: cell-based
Cryptococcus neoformans = test: FIC checkerboard assay MBX-7591 and oleic acid, C. neoformans; type: cell-based; conditions: H99, MBX-7591 + 31.25 μg/ml OA
Procedure: Single-treatment controls were completed with 50 µL of media to substitute the volume of the other compound. […] Additional untreated and media-only controls were added to the plate as described above. Incubation of the plates and MIC assessments (individual and in combination) were performed as described above. FIC calculations were done according to the established formula: ∑FIC=MIC combination compound A/MIC individual compound A + MIC combination compound B/MIC individual compound B . Synergy was considered equal or lower than 0.5, and antagonism was considered to be higher than 2. FIC scores reported represent between three and five biological replicates. All antifungal susceptibility testing was done in 96-well plates using RPMI 1640 media buffered with 165 mM of MOPS and pH 7 using NaOH. CLSI-based microbroth dilution assays were done in accordance with M27 ([49]). […] Additionally, an untreated control (100 µL of a stock of 2 × 10^3 spores/mL and 100 µL of media) and a media-only control (200 µL media) were included in the plate. The plate was covered in a Breathe-Eazy membrane to allow for uniform oxygen diffusion throughout the plate and incubated for 24 hours at 35°C (Candida spp.) or 72 hours at 35°C ± 5% CO2 (Cryptococcus neoformans).

For `O=C(c1ccsc1)N1CCC(Cc2ccc(COc3ccncc3)cc2)CC1` [MBX-7591], the inhibition at 0.58 µg/mL (Aspergillus fumigatus [1]; AFS35, 0.58 μg/mL, read-out: growth inhibition) was ~61%, the inhibition at 1.16 µg/mL (Aspergillus fumigatus [1]; AFS35, 1.16 μg/mL, read-out: growth inhibition) was ~70% and the inhibition at 0.58 µg/mL (Aspergillus fumigatus [1]; phspA:atrR, 0.58 μg/mL, read-out: growth inhibition) was ~9%. It also gave an inhibition at 1.16 µg/mL (Aspergillus fumigatus [1]; phspA:atrR, 1.16 μg/mL, read-out: growth inhibition) of ~19%, an inhibition at 1.16 µg/mL (Aspergillus fumigatus [1]; read-out: growth inhibition, hspA-atrR;ΔsrbA, 1.16 µg/mL) of ~81% and an inhibition at 0.58 µg/mL (Aspergillus fumigatus [1]; read-out: growth inhibition, ΔatrR, 0.58 μg/mL) of ~69%. For the same molecule, the inhibition at 1.16 µg/mL (Aspergillus fumigatus [1]; read-out: growth inhibition, ΔatrR, 1.16 μg/mL) was ~86%, the inhibition at 0.58 µg/mL (Aspergillus fumigatus [1]; read-out: growth inhibition, ΔsrbA, 0.58 μg/mL) was ~62% and the inhibition at 1.16 µg/mL (Aspergillus fumigatus [1]; read-out: growth inhibition, ΔsrbA, 1.16 μg/mL) was ~72%. For the same molecule, the inhibition at 1.16 µg/mL (Aspergillus fumigatus [1]; read-out: growth inhibition, ΔsrbAΔatrR, 1.16 µg/mL) was ~92%, the “growth of parental wild-type strain in the presence of MBX-7591 (of untreated)” value (Aspergillus fumigatus [1]; first of two values) was ~ 67% and the “growth of parental wild-type strain in the presence of MBX-7591 (of untreated)” value (Aspergillus fumigatus [1]; second of two values) was ~ 89%. The MIC ([2]; read-out: MBX-7591 MIC vs A. fumigatus (+) FLC) was 0.4 µM, the MIC ([2]; read-out: MBX-7591 MIC vs A. fumigatus (−) FLC) was 1.2 µM and the MIC ([2]; read-out: MIC (+Flu)) was 5 µM. For the same molecule, the MIC ([2]; read-out: MIC (-Fluc)) was 20 µM, the “Fold MIC” value ([2]; MIC-FLC/MIC+FLC, Table S2) was 4 and the “Ratio (MIC −FLC / MIC +FLC)” value ([2]; Table 1) was 3. For the same molecule, the MIC (Fusarium spp.) was > 39.2 µg/mL, the MIC (Fusarium spp.; read-out: MIC UTHSC) was > 32 µg/mL and the MIC (P. variotii) was > 32 µg/mL. The efflux ratio (Caco-2 permeability) was 0.49, the Papp A→B (Caco-2 permeability; A→B, method b66 gives Papp in cm/s) was 11 ×10⁻⁶ cm/s and the Papp B→A (Caco-2 permeability; B→A, method b66 gives Papp in cm/s) was 5.6 ×10⁻⁶ cm/s. The MIC (Aspergillus terreus) was > 32 µg/mL, the MIC (Rhizopus delemar) was 0.31 µg/mL (≈ 0.79 µM) and the MIC (Rhizopus delemar; read-out: MIC UTHSC) was ~0.25 µg/mL (≈ 0.637 µM). For the same molecule, the “MIC UTHSC” value (Rhizopus delemar) was 0.25 µg/mL (≈ 0.637 µM), the “colony formation after 48 hours of treatment of conidia” value (Aspergillus fumigatus [3]) was “No colony-forming units were observed at or 2× the MIC” and the MIC (Aspergillus nidulans) was > 39.2 µg/mL. For the same molecule, the solubility [4] was 50 µM (≈ 19.6 µg/mL), the MIC (Candida albicans; strain SC5314) was > 39.2 µg/mL and the MIC (Candida albicans; strain SC5314, read-out: MIC UTHSC) was > 32 µg/mL. For the same molecule, the CC50 (HeLa cells (ATCC CCL-2)) was ≥ 100 µM, the CC50 [5] was > 100 µM and the MIC (Candida auris; Clade I, Clade III) was > 39.2 µg/mL. The MIC (Candida auris; NIH: DI17-47, DI17-48, DI17-46, read-out: MIC UTHSC) was > 32 µg/mL, the MIC (Scedosporium spp.; NIH: DI19-67, DI15-15, DI19-66, read-out: MIC UTHSC) was > 32 µg/mL and the MIC (Scedosporium spp.; apiospermum (7D7), prolificans (7D8), JI 2018 "typical" (14E6)) was > 39.2 µg/mL. The MIC (Coccidioides spp.; read-out: MIC UTHSC, strain DI14-269) was > 32 µg/mL, the MIC (Coccidioides spp.; read-out: MIC UTHSC, strain DI14-284) was 8 µg/mL (≈ 20.4 µM) and the MIC (Coccidioides spp.; read-out: MIC UTHSC, strain DI17-143) was > 32 µg/mL. For the same molecule, the “FIC value” (Cryptococcus neoformans) was > 4.
